In ChEMBL document CHEMBL5038570, “Discovery of Novel Pyrrolo[2,3-d]pyrimidine-based Derivatives as Potent JAK/HDAC Dual Inhibitors for the Treatment of Refractory Solid Tumors” (J Med Chem, 2022):
Active and inactive are the calls of the source. The rule behind the calls is not given here.

Tests used:
[1] = molecular target: Tyrosine-protein kinase JAK2 (Homo sapiens, UniProt O60674); assay: Inhibition of JAK2 (unknown origin) assessed as inhibition rate at 10 uM incubated for 60 mins by microplate reader analysis relative to control
Sequence of Tyrosine-protein kinase JAK2 (O60674 whole entry): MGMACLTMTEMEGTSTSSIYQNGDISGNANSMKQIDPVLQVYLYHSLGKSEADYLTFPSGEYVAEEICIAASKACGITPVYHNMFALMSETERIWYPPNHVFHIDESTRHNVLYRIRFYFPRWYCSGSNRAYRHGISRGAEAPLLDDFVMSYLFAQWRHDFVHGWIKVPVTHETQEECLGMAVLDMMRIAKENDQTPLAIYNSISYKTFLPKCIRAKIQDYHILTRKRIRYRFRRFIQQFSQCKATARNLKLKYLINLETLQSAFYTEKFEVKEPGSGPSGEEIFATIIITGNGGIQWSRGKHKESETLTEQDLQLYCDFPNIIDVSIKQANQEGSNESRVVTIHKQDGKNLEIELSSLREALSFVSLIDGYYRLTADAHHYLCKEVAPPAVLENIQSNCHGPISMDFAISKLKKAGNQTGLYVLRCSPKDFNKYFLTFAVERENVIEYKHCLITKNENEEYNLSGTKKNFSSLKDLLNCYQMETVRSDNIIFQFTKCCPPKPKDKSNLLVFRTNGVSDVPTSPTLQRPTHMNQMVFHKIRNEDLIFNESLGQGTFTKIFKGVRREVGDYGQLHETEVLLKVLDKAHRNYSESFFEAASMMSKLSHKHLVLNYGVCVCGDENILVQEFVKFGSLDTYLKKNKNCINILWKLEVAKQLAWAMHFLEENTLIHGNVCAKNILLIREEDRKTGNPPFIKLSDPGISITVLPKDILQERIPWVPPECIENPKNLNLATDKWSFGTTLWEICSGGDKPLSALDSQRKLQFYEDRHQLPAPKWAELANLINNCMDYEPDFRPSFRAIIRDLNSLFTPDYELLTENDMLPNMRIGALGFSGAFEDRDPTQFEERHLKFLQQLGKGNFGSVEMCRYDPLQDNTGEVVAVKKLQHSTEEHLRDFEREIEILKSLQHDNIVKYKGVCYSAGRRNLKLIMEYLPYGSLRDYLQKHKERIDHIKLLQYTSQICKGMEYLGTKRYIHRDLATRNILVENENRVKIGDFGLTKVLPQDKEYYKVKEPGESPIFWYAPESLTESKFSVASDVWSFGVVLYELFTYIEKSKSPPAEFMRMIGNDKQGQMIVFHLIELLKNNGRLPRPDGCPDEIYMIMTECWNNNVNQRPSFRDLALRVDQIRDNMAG

4T1 [2] = assay: Induction of apoptosis in mouse 4T1 cells assessed as viable cells at 5 uM measured after 48 hrs in presence of ruxolitinib by annexin V-FITC/propidium iodide staining based flow cytometry (reference value: 89.5%); format: functional
4T1 [3] = assay: Induction of apoptosis in mouse 4T1 cells assessed as rly apoptotic cells at 5 uM measured after 48 hrs in presence of ruxolitinib by annexin V-FITC/propidium iodide staining based flow cytometry (reference value: 1.12%); format: functional
MDA-MB-231 [4] = assay: Induction of apoptosis in human MDA-MB-231 cells assessed as viable cells at 2.5 uM measured after 48 hrs by annexin V-FITC/propidium iodide staining based flow cytometry (reference value: 85.7%); format: functional
MDA-MB-231 [5] = assay: Induction of apoptosis in human MDA-MB-231 cells assessed as viable cells at 2.5 uM measured after 48 hrs in presence of ruxolitinib by annexin V-FITC/propidium iodide staining based flow cytometry (reference value: 85.7%); format: functional
4T1 [6] = assay: Induction of apoptosis in mouse 4T1 cells assessed as late apoptotic cells at 5 uM measured after 48 hrs in presence of ruxolitinib by annexin V-FITC/propidium iodide staining based flow cytometry (reference value: 4.99%); format: functional
4T1 [7] = assay: Induction of apoptosis in mouse 4T1 cells assessed as necrotic cells at 5 uM measured after 48 hrs in presence of ruxolitinib by annexin V-FITC/propidium iodide staining based flow cytometry (reference value: 4.35%); format: functional
MDA-MB-231 [8] = format: functional, Mus musculus; conditions: dose 100 mg/kg; time 14 day
MDA-MB-231 [9] = assay: Induction of apoptosis in human MDA-MB-231 cells assessed as necrotic cells at 10 uM measured after 48 hrs by annexin V-FITC/propidium iodide staining based flow cytometry (reference value: 5.38%); format: functional
4T1 [10] = assay: Induction of apoptosis in mouse 4T1 cells assessed as early apoptotic cells at 10 uM measured after 48 hrs by annexin V-FITC/propidium iodide staining based flow cytometry (reference value: 1.12%); format: functional
4T1 [11] = assay: Induction of apoptosis in mouse 4T1 cells assessed as necrotic cells at 10 uM measured after 48 hrs by annexin V-FITC/propidium iodide staining based flow cytometry (reference value: 4.35%); format: functional
4T1 [12] = assay: Induction of apoptosis in mouse 4T1 cells assessed as late apoptotic cells at 10 uM measured after 48 hrs by annexin V-FITC/propidium iodide staining based flow cytometry (reference value: 4.99%); format: functional
[13] = molecular target: T1, Protein deacetylase HDAC6 (Homo sapiens) (UniProt Q9UBN7); assay: Inhibition of HDAC6 (unknown origin) at 10 uM incubated for 60 min by microplate reader analysis relative to control
T1 sequence (whole entry): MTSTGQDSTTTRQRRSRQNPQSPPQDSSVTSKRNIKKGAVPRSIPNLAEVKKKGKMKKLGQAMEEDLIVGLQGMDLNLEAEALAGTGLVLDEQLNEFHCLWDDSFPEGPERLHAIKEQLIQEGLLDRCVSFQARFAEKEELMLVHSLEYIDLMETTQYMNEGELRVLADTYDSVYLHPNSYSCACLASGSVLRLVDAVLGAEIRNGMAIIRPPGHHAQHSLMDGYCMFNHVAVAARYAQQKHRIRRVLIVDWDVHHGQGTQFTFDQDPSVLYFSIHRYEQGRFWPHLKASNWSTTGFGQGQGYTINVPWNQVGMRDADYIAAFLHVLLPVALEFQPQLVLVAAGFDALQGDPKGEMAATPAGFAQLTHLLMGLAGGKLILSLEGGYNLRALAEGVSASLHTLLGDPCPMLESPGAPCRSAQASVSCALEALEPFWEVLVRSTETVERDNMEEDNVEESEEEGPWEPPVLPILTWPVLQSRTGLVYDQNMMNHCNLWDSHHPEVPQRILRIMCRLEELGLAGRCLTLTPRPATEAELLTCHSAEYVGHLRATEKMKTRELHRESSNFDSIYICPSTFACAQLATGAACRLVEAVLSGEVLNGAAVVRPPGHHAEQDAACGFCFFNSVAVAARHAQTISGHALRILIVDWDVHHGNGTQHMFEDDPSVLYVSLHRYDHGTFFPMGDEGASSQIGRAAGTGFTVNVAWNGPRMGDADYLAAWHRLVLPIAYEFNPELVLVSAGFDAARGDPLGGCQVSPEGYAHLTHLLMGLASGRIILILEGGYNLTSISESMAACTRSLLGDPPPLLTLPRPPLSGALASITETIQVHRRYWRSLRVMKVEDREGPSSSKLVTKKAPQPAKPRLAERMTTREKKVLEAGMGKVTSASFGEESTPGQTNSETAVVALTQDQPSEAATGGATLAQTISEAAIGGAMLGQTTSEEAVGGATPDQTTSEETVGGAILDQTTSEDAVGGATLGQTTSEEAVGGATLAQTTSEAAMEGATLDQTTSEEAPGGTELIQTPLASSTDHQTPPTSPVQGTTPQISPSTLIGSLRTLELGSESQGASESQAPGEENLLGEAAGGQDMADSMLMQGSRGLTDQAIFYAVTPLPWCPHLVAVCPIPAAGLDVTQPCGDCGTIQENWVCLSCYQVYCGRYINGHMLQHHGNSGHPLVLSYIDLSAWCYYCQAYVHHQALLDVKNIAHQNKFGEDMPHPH

MDA-MB-231 [14] = assay: Induction of apoptosis in human MDA-MB-231 cells assessed as early apoptotic cells at 10 uM measured after 48 hrs by annexin V-FITC/propidium iodide staining based flow cytometry (reference value: 3.09%); format: functional
4T1 [15] = assay: Induction of apoptosis in mouse 4T1 cells assessed as viable cells at 10 uM measured after 48 hrs by annexin V-FITC/propidium iodide staining based flow cytometry (reference value: 89.5%); format: functional

Row | Structure (SMILES) | inhibition [1] | Activity (4T1 [2]) [%] | Activity (4T1 [3]) [%] | Activity (MDA-MB-231 [4]) [%] | Activity (MDA-MB-231 [5]) [%] | Activity (4T1 [6]) [%] | Activity (4T1 [7]) [%] | TGI (MDA-MB-231 [8]) [%] | Activity (MDA-MB-231 [9]) [%] | Activity (4T1 [10]) [%] | Activity (4T1 [11]) [%] | Activity (4T1 [12]) [%] | inhibition [13] | Activity (MDA-MB-231 [14]) [%] | Activity (4T1 [15]) [%]
1 | O=C(CCCCCCC(=O)Nc1ccccc1)NO [VORINOSTAT] | inactive | 65.2 | 28.6 | 57.3 | 25.8 | 4.98 | 1.23 |  |  |  |  |  |  |  | 
2 | N#CC[C@H](C1CCCC1)n1cc(-c2ncnc3[nH]ccc23)cn1 [RUXOLITINIB] |  |  |  |  |  |  |  | 12 | 6.09 | 2.04 | 4.98 | 4 | inactive | 6.09 | 89
